Measured values published in patent publication US11124510B2, “Alkyl chain modified imidazoquinoline TLR7/8 agonist compounds and uses thereof” (Dynavax Technologies Corporation, priority 2017, dated 2021).

Columns and labels:
TLR7 = TLR7 (Homo sapiens (Human), UniProt Q9NYK1); assay: TLR7 agonist bioactivity: induction of IFNα protein in pDC-enriched PBMC cultures (ELISA, 24 h); assay type: cell-based; conditions: for TLR7 (% of Compound No. 63-00 EC50 Value): EC50 expressed as percentage of EC50 of Compound No. 63-00; for EC50: IFNα induction, pDC-enriched human PBMC, 24 hours; for fold loss of TLR7 agonist potency compared to Compound No. 63-00 (IMDQ): less potent than IMDQ
Protocol: Plasmacytoid dendritic cell (pDC)—enriched peripheral blood mononuclear cells (PBMCs) were prepared from the blood of a series of human donors (3-5 donors/experiment). PBMCs were isolated using Ficoll-Paque Premium® (GE Healthcare, Chicago Ill.) using methods well known to those in the art. pDCs were magnetically isolated from the total recovered PBMC population using CD304 (BDCA-4/Neuropilin-1) microbeads (Miltenyi Biotec, San Diego Calif.), according to the manufacturer's instructions. Isolated pDCs were then added back to between 1 and 2×10^8 of the corresponding donor's PBMCs for relative enrichment of this cell type. […] Culture supernatants were collected and interferon-alpha (IFNα) protein levels were measured by ELISA (MabTech, Cincinnati Ohio), according to the manufacturer's instructions.

serum IL-6 and IL-12p40 = assay: In vivo systemic immune activation assay: serum IL-6 and IL-12p40 by ELISA after single subcutaneous injection; parameters: species or system mice; conditions: 5 μg subcutaneously in footpad, 95% sesame oil/5% ethanol, ± SEM
Protocol: Small molecule TLR7 and TLR7/8 agonists derived from the 1H-imidazo[4,5-c]quinoline privileged template (see e.g., Imiquimod, Resiquimod) are known to rapidly distribute to the systemic compartment following intratumoral, subcutaneous, or intramuscular injection. Broad systemic distribution of these agonist compounds in wild-type mice induces TLR7-dependent cytokine responses, primarily in spleen and liver cells, which can subsequently be detected in the serum within 3-6 hours. The rapid increase in serum cytokine biomarkers (e.g., IL-6 and IL-12p40) can be used to assess the kinetics of systemic distribution of a locally administered TLR agonist.
The kinetics of distribution of pharmaceutical compositions comprised of Compound Nos. 63-00, 63-17, or 63-10 formulated in 95% sesame oil/5% ethanol (v/v) were assessed following a single subcutaneous injection in wild-type mice. All in vivo procedures were conducted in accordance with approved Institutional Animal Care and Use Committee (IACUC) protocols. The animals were housed in a facility that is accredited by the Association for Accreditation and Laboratory Animal Care (AALAC, Frederick Md.). Wild-type female BALB/c mice (15-20 gm) were obtained from Envigo (Hayward, Calif.) and acclimated for 2-3 days prior to use.
The pharmaceutical compositions were made with the three compounds, at a final concentration of 200 μg/mL, in a manner similar to that described in Example B2-1. At T=0, groups of 3 mice were anesthetized with 1% isoflurane and injected subcutaneously in the right footpad with 5 μg of each of the three compounds, or a vehicle control, in 25 uL of 95% sesame oil/5% ethanol (v/v). Then, at T=3, 6, and 24 hours, three animals from each group were anesthetized with 1% isoflurane to facilitate blood collection by cardiac puncture. Samples were processed to serum, and stored at −20° C. for further analysis.

CT26 colon carcinoma [1] = assay: Anti-tumor efficacy in combination with anti-PD-1 antibody in dual flank CT26 colon carcinoma-bearing mice; assay type: in vivo; conditions: for tumor growth inhibition in the injected tumor (right flank) compared to the anti-PD-1 treatment alone / tumor growth inhibition in the distal tumor (left flank) compared to the anti-PD-1 treatment alone: 5,000 ng single intratumoral dose day 14, in combination with anti-PD-1; for tumor growth inhibition in the distal tumor (left flank) compared to the anti-PD-1 treatment alone: day 29; for injected tumor growth inhibition, difference from the anti-PD-1 treatment control at day 29: 5,000 ng single intratumoral dose, in combination with anti-PD-1, Kruskall-Wallis/Dunn
Protocol: All in vivo procedures were conducted in accordance with approved IACUC protocols. The animals were housed in a facility that is accredited by the AALAC. Wild-type female Balb/c mice (15-20 g) were obtained from Envigo (Hayward, Calif.) and acclimated for 2-3 days prior to use.
The pharmaceutical compositions were made using Compound No. 63-10 or 63-33 at final concentrations of 50,000 ng/mL in a manner similar to that described for Example B2-1. […] On day 0, mice were anesthetized with 1% isoflurane, and 80,000 CT26 tumor cells in 200 uL of RMPI-1640 culture media plus 2.5% fetal bovine serum were injected subcutaneously in both the right and left flanks. Tumors (left and right) were allowed to grow until day 8, when the right and left flank tumor sizes had reached approximately 35 mm^3, at which point mice were injected intraperitoneally with 250 μg of anti-PD-1 antibody formulated in phosphate buffered saline or a phosphate buffered saline vehicle control. The anti-PD-1 treatments were repeated on experimental days 12, 15, 19, 22, and 26. On experimental day 14, when the right (injected) and left (distal) flank tumors had reached approximately 100 mm^3, mice were randomized into treatment groups. […] Tumor sizes were measured twice weekly from days 14 through day 29 with calipers, with tumor volumes calculated using the formula: length, multiplied by width, multiplied by width, divided by 2.

TLR8 = TLR8 (Homo sapiens (Human), UniProt Q9NR97); assay: TLR8 agonist bioactivity: induction of TNFα protein in monocyte cultures (ELISA, 24 h); assay type: cell-based; conditions: for EC50: TNFα induction, human monocytes, 24 hours; for fold increase of TLR8 agonist potency compared to Compound No. 63-00 (IMDQ): more potent than IMDQ
Protocol: Monocytes were magnetically isolated from PBMCs, prepared as described above, following labeling with CD14 microbeads (Miltenyi Biotec, San Diego Calif.), according to the manufacturer's instructions. […] Culture supernatants were collected and tumor necrosis factor alpha (TNFα) protein levels were measured by ELISA (MabTech, Cincinnati Ohio), according to the manufacturer's instructions.

CT26 colon carcinoma [2] = assay: Anti-tumor efficacy, repeated intratumoral dosing in CT26 colon carcinoma-bearing wild-type mice; assay type: in vivo; conditions: 0.5-20 μg in 95% sesame oil/5% ethanol
Protocol: The effect of repeated weekly doses of intratumorally delivered pharmaceutical compositions comprised of Compound No. 63-10, 63-18, or 63-33 formulated in 95% sesame oil/5% ethanol (v/v) on tumor growth inhibition was assessed in syngeneic CT26 colon carcinoma-bearing Balb/c mice. All in vivo procedures were conducted in accordance with approved Institutional Animal Care and Use Committee (IACUC) protocols. The animals were housed in a facility that is accredited by the Association for Accreditation and Laboratory Animal Care (AALAC, Frederick, Md.). Wild-type female Balb/c mice (15-20 gm) were obtained from Envigo (Hayward, Calif.) and acclimated for 2-3 days prior to use.
The pharmaceutical compositions were made with the three compounds at final concentrations of 5, 50, and 200 μg/mL in a manner similar to that described in Example B2-1. […] On day 0, mice were anesthetized with 1% isoflurane and 80,000 CT26 tumor cells in 200 uL of RMPI-1640 culture media plus 2.5% fetal bovine serum were injected subcutaneously in the right flank. Tumors were allowed to grow until they were ˜35 mm^3, at which point animals were assigned to groups to begin treatment. Mice were injected weekly for 4 weeks intratumorally with 100 uL of a pharmaceutical composition comprising 20, 5, or 0.5 μgs of Compound No. 63-10, or 20 or 5 μgs of Compound Nos. 63-18, or 63-33 formulated in 95% sesame oil/5% ethanol (v/v), or a vehicle control, twice weekly for 3 weeks (experimental days 9, 12, 16, 19, 23, and 26). The TLR9 CpG agonist was injected intratumorally with 100 μL of a pharmaceutical composition comprised of 50 μgs of compound formulated in phosphate buffered saline on the same dosing schedule. Tumor sizes were measured twice weekly from days 8 through day 30 with calipers, with tumor volumes calculated using the formula: length, multiplied by width, multiplied by width, divided by 2.

Sequence of TLR8 (Q9NR97 27-1041): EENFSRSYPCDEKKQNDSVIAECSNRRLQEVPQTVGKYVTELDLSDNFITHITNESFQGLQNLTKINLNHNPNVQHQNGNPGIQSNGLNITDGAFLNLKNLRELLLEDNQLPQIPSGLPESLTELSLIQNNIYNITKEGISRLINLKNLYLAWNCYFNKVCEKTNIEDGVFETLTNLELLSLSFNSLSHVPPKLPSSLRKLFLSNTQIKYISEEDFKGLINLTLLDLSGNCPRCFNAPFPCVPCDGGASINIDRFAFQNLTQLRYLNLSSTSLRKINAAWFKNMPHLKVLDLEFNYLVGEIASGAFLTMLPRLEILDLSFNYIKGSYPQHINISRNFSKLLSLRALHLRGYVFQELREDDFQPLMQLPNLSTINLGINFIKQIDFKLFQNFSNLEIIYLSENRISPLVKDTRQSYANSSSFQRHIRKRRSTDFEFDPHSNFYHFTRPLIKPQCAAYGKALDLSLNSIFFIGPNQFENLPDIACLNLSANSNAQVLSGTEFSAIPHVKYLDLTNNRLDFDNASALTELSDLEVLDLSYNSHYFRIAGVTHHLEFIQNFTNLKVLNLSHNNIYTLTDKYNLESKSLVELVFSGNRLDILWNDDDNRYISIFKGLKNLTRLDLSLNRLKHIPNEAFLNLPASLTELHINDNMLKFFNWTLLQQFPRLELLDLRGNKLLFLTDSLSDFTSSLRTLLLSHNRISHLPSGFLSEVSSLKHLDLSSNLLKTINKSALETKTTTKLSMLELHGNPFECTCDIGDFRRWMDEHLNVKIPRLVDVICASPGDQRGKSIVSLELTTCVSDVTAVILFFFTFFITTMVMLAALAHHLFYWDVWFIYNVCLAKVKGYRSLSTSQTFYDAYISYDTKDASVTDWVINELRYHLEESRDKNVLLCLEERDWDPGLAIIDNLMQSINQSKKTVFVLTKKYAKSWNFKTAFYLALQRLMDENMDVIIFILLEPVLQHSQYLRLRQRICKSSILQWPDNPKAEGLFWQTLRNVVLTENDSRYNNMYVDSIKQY
Sequence of TLR7 (Q9NYK1 27-1049): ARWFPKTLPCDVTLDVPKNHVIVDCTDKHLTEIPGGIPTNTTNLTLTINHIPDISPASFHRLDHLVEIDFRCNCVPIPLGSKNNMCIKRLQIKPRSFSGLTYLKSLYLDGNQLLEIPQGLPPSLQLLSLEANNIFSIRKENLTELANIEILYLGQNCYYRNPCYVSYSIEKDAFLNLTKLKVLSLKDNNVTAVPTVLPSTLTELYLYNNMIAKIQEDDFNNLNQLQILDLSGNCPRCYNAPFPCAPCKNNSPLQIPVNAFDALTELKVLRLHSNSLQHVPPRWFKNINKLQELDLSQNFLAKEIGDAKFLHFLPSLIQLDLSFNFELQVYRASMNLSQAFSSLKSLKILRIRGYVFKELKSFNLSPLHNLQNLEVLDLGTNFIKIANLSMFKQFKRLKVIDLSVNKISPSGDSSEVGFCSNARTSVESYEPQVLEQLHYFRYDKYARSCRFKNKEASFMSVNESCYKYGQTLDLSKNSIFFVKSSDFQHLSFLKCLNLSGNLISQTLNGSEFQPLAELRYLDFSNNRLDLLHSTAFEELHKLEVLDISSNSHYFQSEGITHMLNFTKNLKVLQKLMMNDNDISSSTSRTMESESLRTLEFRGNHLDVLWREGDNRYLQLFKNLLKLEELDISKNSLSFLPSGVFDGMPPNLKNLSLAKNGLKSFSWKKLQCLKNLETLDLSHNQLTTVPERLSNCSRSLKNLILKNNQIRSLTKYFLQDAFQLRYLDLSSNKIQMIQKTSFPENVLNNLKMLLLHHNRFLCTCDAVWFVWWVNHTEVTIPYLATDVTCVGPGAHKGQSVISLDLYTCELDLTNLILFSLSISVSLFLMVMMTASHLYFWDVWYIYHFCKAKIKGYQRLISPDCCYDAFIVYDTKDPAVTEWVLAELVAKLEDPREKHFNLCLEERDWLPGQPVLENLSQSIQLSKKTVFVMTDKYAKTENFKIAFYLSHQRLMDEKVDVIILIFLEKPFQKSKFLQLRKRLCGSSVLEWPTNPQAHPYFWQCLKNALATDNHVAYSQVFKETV

EC50 (TLR7) [nM] | EC50 (TLR8) [nM] | SMILES | TLR7 (% of Compound No. 63-00 EC50 Value) (TLR7) [%] | serum IL-6 (serum IL-6 and IL-12p40; 3 hours) [pg/mL] | serum IL-12p40 (serum IL-6 and IL-12p40; 3 hours) | serum IL-6 (serum IL-6 and IL-12p40; 6 hours) [pg/mL] | serum IL-12p40 (serum IL-6 and IL-12p40; 6 hours) | serum IL-6 (serum IL-6 and IL-12p40; 24 hours) [pg/mL] | serum IL-12p40 (serum IL-6 and IL-12p40; 24 hours) | tumor growth inhibition in the injected tumor (right flank) compared to the anti-PD-1 treatment alone (CT26 colon carcinoma [1]) | tumor growth inhibition in the distal tumor (left flank) compared to the anti-PD-1 treatment alone (CT26 colon carcinoma [1]) | injected tumor growth inhibition, difference from the anti-PD-1 treatment control at day 29 (CT26 colon carcinoma [1]) | fold loss of TLR7 agonist potency compared to Compound No. 63-00 (IMDQ) (TLR7) [fold] | fold increase of TLR8 agonist potency compared to Compound No. 63-00 (IMDQ) (TLR8) | CT26 tumor growth control compared to the vehicle control (CT26 colon carcinoma [2]) | TLR8 (% of Compound No. 63-00 EC50 Value) (TLR8; EC50 expressed as percentage of EC50 of Compound No. 63-00) [%]
– | – | CCCCc1nc2c(N)nc3ccccc3c2n1Cc1ccc(CN)cc1 [Compound No. 63-00, 1-(4-(aminomethyl)benzyl)-2-butyl-1H-imidazo[4,5-c]quinolin-4-amine, reference compound] | 100 | 772 ± 141 | 139,767±31,024 pg/mL | 160 ± 19 | 142,359±22,350 pg/mL | 32 ± 2 | 7,796±1,545 pg/mL | greater tumor growth inhibition | trend towards greater tumor growth inhibition | significantly different | – | – | – | –
2 | 104 | CCCCCNCc1ccc(Cn2c(CCCC)nc3c(N)nc4ccccc4c32)cc1 [Compound No. 63-17, 2-butyl-1-(4-((pentylamino)methyl)benzyl)-1H-imidazo[4,5-c]quinolin-4-amine] | – | 853 ± 539 | 84,731±32,530 pg/mL | 414 ± 105 | 258,645±19,982 pg/mL | 33 ± 4 | 19,546±2,116 pg/mL | – | – | – | 2 | – | – | –
15 | 213 | CCCCCCNCc1ccc(Cn2c(CCCC)nc3c(N)nc4ccccc4c32)cc1 [Compound No. 63-18, 2-butyl-1-(4-((hexylamino)methyl)benzyl)-1H-imidazo[4,5-c]quinolin-4-amine] | – | – | – | – | – | – | – | – | – | – | – | slightly improved | robust CT26 tumor growth control | –

SMILES | EC50 (TLR7) [nM] | EC50 (TLR8) [nM] | TLR7 (% of Compound No. 63-00 EC50 Value) (TLR7) [%] | serum IL-6 (serum IL-6 and IL-12p40; 3 hours) [pg/mL] | serum IL-12p40 (serum IL-6 and IL-12p40; 3 hours) | serum IL-6 (serum IL-6 and IL-12p40; 6 hours) [pg/mL] | serum IL-12p40 (serum IL-6 and IL-12p40; 6 hours) | serum IL-6 (serum IL-6 and IL-12p40; 24 hours) [pg/mL] | serum IL-12p40 (serum IL-6 and IL-12p40; 24 hours) | tumor growth inhibition in the injected tumor (right flank) compared to the anti-PD-1 treatment alone (CT26 colon carcinoma [1]) | tumor growth inhibition in the distal tumor (left flank) compared to the anti-PD-1 treatment alone (CT26 colon carcinoma [1]) | injected tumor growth inhibition, difference from the anti-PD-1 treatment control at day 29 (CT26 colon carcinoma [1]) | fold loss of TLR7 agonist potency compared to Compound No. 63-00 (IMDQ) (TLR7) [fold] | fold increase of TLR8 agonist potency compared to Compound No. 63-00 (IMDQ) (TLR8) | CT26 tumor growth control compared to the vehicle control (CT26 colon carcinoma [2]) | TLR8 (% of Compound No. 63-00 EC50 Value) (TLR8; EC50 expressed as percentage of EC50 of Compound No. 63-00) [%]
CCCCc1nc2c(N)nc3ccccc3c2n1Cc1ccc(CNCCC2CC2)cc1 [Compound No. 63-33, 2-butyl-1-(4-(((2-cyclopropylethyl)amino)methyl)benzyl)-1H-imidazo[4,5-c]quinolin-4-amine] | 4 | 75 | 290 | – | – | – | – | – | – | greater tumor growth inhibition | trend towards greater tumor growth inhibition | significantly different | 4 | 2.9 fold | robust CT26 tumor growth control | 41
